Legend:
Sus scrofa = species: Sus scrofa; assay: Displacement of [3H]-(+)-MK801 from pig brain phencyclidine binding site of NMDA receptor at 1 uM by scintillation counting
[1] = system: Sigma-2 receptor (Rattus norvegicus); assay: Displacement of [3H]-di-o-tolylguanidine from sigma-2 receptor in rat liver homogenate at 1 uM by liquid scintillation counting
[2] = Displacement of [3H]-(+)-MK801 from pig brain phencyclidine binding site of NMDA receptor by scintillation counting; parameters: species or system Sus scrofa
[3] = target: Sigma-2 receptor (Rattus norvegicus); assay: Displacement of [3H]-di-o-tolylguanidine from sigma-2 receptor in rat liver homogenate by liquid scintillation counting

SMILES	inhibition (Sus scrofa) [%]	inhibition [1] [%]	Ki [2] [nM]	Ki [3] [nM]
O=C(OCc1ccccc1)N1CC[C@@H](NCc2ccccc2)C[C@H]1[C@@H]1COC(c2ccccc2)(c2ccccc2)O1 (racemic)	8	23	–	–
O[C@@H]1CCN[C@H]([C@H]2COC(c3ccccc3)(c3ccccc3)O2)C1 (racemic)	–	2	527	–
CN[C@@H]1CCN(C(=O)OCc2ccccc2)[C@H]([C@H]2COC(c3ccccc3)(c3ccccc3)O2)C1 (racemic)	10	42	–	–
CN[C@H]1CCN[C@H]([C@H]2COC(c3ccccc3)(c3ccccc3)O2)C1 (racemic)	30	37	–	–
O[C@@H]1CCN[C@H]([C@@H]2COC(c3ccccc3)(c3ccccc3)O2)C1 (racemic)	0	0	–	–
N[C@@H]1CCN[C@H]([C@H]2COC(c3ccccc3)(c3ccccc3)O2)C1 (racemic)	44	26	–	–
CO[C@@H]1CCN[C@H]([C@H]2COC(c3ccccc3)(c3ccccc3)O2)C1 (racemic)	49	5	–	–
O=C(OCc1ccccc1)N1CC[C@H](NCc2ccccc2)C[C@H]1[C@H]1COC(c2ccccc2)(c2ccccc2)O1 (racemic)	15	8	–	–
CN[C@H]1CCN(C(=O)OCc2ccccc2)[C@H]([C@@H]2COC(c3ccccc3)(c3ccccc3)O2)C1 (racemic)	7	18	–	–
O=C1CCN[C@H]([C@@H]2COC(c3ccccc3)(c3ccccc3)O2)C1 (racemic)	84	–	–	–
CO[C@H]1CCN[C@H]([C@@H]2COC(c3ccccc3)(c3ccccc3)O2)C1 (racemic)	21	23	–	–
CN[C@H]1CCN[C@H]([C@@H]2COC(c3ccccc3)(c3ccccc3)O2)C1 (racemic)	16	–	–	3670
CN[C@H]1CCN(C(=O)OCc2ccccc2)[C@H]([C@H]2COC(c3ccccc3)(c3ccccc3)O2)C1 (racemic)	6	35	–	–
O[C@H]1CCN[C@H]([C@H]2COC(c3ccccc3)(c3ccccc3)O2)C1 (racemic)	–	13	44	–
CN[C@@H]1CCN(C(=O)OCc2ccccc2)[C@H]([C@@H]2COC(c3ccccc3)(c3ccccc3)O2)C1 (racemic)	7	28	–	–
N[C@@H]1CCN[C@H]([C@@H]2COC(c3ccccc3)(c3ccccc3)O2)C1 (racemic)	26	15	–	–
N[C@H]1CCN[C@H]([C@@H]2COC(c3ccccc3)(c3ccccc3)O2)C1 (racemic)	25	13	–	–
O[C@H]1CCN[C@H]([C@@H]2COC(c3ccccc3)(c3ccccc3)O2)C1 (racemic)	3	30	–	–
O=C(OCc1ccccc1)N1CC[C@@H](NCc2ccccc2)C[C@H]1[C@H]1COC(c2ccccc2)(c2ccccc2)O1 (racemic)	20	14	–	–
N[C@H]1CCN[C@H]([C@H]2COC(c3ccccc3)(c3ccccc3)O2)C1 (racemic)	17	17	–	–
CN[C@@H]1CCN[C@H]([C@H]2COC(c3ccccc3)(c3ccccc3)O2)C1 (racemic)	40	12	–	–
CO[C@H]1CCN[C@H]([C@H]2COC(c3ccccc3)(c3ccccc3)O2)C1 (racemic)	–	9	981	–
O=C(OCc1ccccc1)N1CC[C@H](NCc2ccccc2)C[C@H]1[C@@H]1COC(c2ccccc2)(c2ccccc2)O1 (racemic)	30	–	–	442
CO[C@@H]1CCN[C@H]([C@@H]2COC(c3ccccc3)(c3ccccc3)O2)C1 (racemic)	37	18	–	–
O=C1CCN[C@H]([C@H]2COC(c3ccccc3)(c3ccccc3)O2)C1 (racemic)	–	–	470	–
CN[C@@H]1CCN[C@H]([C@@H]2COC(c3ccccc3)(c3ccccc3)O2)C1 (racemic)	16	44	–	–

Source: ChEMBL document CHEMBL3217603, “Synthesis and NMDA receptor affinity of dexoxadrol analogues with modifications in position 4 of the piperidine ring” (Medchemcomm, 2010)
